Experimental data published in patent publication US20080249123A1, “WORTMANNIN-RAPAMYCIN CONJUGATE AND USES THEREOF” (Wyeth, priority 2007, published 2008).

Tests used:
HCT116 = assay: In vitro cell culture growth assay (MTS), HCT116; assay type: cell-based, Human; settings: colon line, 3 days after drug treatment
Protocol: (§1) Human tumor cell lines (Table 3) include prostate lines LNCap and PC3MM2, breast lines MDA468, MCF7, renal line HTB44 (A498), colon line HCT116, and ovarian line OVCAR3. Cells were plated in 96-well culture plates.
(§2) One day following plating, the following conjugates (inhibitors) were added to cells: • Compound A 42,17′-linked wortmannin-adipate-rapamycin conjugate, diethylamine adduct • Compound B 42,17′-linked wortmannin-adipate-rapamycin conjugate. • Compound C 42,17′-linked wortmannin-succinate-rapamycin conjugate, N,N,N′-trimethyl 1,3-propanediamine adduct • Compound D 42,17′-linked wortmannin-adipate-rapamycin conjugate, diallylamine adduct • Compound E 42,17′-linked wortmannin-adipate-rapamycin conjugate, N,N,N′-trimethyl 1,3-propanediamine adduct • Compound F 42,17′-linked wortmannin-suberate-rapamycin conjugate, N,N,N′-trimethyl 1,3-propanediamine adduct.
(§3) Three days after drug treatment, viable cell densities were determined by metabolic conversion (by viable cells) of the MTS dye (3-(4,5-dimethylthiazol-2-yl)-5-(3 carboxymethoxyphenyl)-2-(4-sulfophenyl)-2H-tetrazolium, inner salt), a well established cell proliferation assay. The assays were performed using an assay kit purchased from Promega Corp. (Madison, Wis.) following the protocol supplied with the kit. The MTS assay results were read in a 96-well plate reader by measuring absorbance at 490 nm. The effect of each treatment was calculated as percent of control growth relative to the vehicle-treated cells grown in the same culture plate. The drug concentration that conferred 50% inhibition of growth was determined as IC50 (μg/mL). See, Table 3.

LNCap = assay: In vitro cell culture growth assay (MTS), LNCap; assay type: cell-based, Human; settings: prostate line, 3 days after drug treatment
Protocol: as §1, §2, §3

MDA468 = assay: In vitro cell culture growth assay (MTS), MDA468; assay type: cell-based, Human; settings: breast line, 3 days after drug treatment
Protocol: as §1, §2, §3

OVCAR3 = assay: In vitro cell culture growth assay (MTS), OVCAR3; assay type: cell-based, Human; settings: ovarian line, 3 days after drug treatment
Protocol: as §1, §2, §3

MCF7 = assay: In vitro cell culture growth assay (MTS), MCF7; assay type: cell-based, Human; settings: breast line, 3 days after drug treatment
Protocol: as §1, §2, §3

PC3MM2 = assay: In vitro cell culture growth assay (MTS), PC3MM2; assay type: cell-based, Human; settings: prostate line, 3 days after drug treatment
Protocol: as §1, §2, §3

HTB44 (A498) = assay: In vitro cell culture growth assay (MTS), HTB44 (A498); assay type: cell-based, Human; settings: renal line, 3 days after drug treatment
Protocol: as §1, §2, §3

U87MG Glioma Xenografts = assay: Xenograft tumor efficacy study, U87MG glioma in nude mice; assay type: in vivo; settings: for Tumor Volume mean, Day 14 / S/T (D14), Survival over total in group / t/c (Treated over control) tumor volume, Day 14: Day 14
Protocol: Female nude mice at 10 weeks of age were inoculated subcutaneously on the flank with 200 μL U87MG (human gliobastoma) tumor cell suspension. U87MG cells were suspended in full growth media and were implanted at 10 million cells per mouse. Mice were staged when tumors reached approximately 200 mm^3 in sizes. Tumor bearing mice at staging (day 0) were randomized into treatment groups (n=10). […]
The growth of tumors was monitored twice a week for the duration of the experiment. Tumor size was measured using sliding vernier calipers, and the tumor mass was calculated using the formula (length×Width^2)/2.
The experimental methods for drug preparation, dosing route, regimen, etc (listed in the Table 4) were similar to the experiments presented in the Figures. The data in Table 4 and the Figures were derived from multiple and completely different experiments. Within Table 4, the data contained separate experiments.

C3H mammary model = settings: cited from earlier work
PI3K = settings: cited from earlier work

Compound | IC50 inhibition of tumor cell growth, HCT116 (HCT116) [µg/mL] | IC50 inhibition of tumor cell growth, LNCap (LNCap) [µg/mL] | IC50 inhibition of tumor cell growth, MDA468 (MDA468) [µg/mL] | IC50 inhibition of tumor cell growth, OVCAR3 (OVCAR3) [µg/mL] | IC50 inhibition of tumor cell growth, MCF7 (MCF7) [µg/mL] | IC50 inhibition of tumor cell growth, PC2MM2 (PC3MM2) [µg/mL] | IC50 inhibition of tumor cell growth, HTB44 (HTB44 (A498)) [µg/mL] | Tumor Volume mean, Day 0 (U87MG Glioma Xenografts; 3 mg/kg IV on day 0 and day 7) [mm^3] | Tumor Volume mean, Day 3 (U87MG Glioma Xenografts; 3 mg/kg IV on day 0 and day 7) [mm^3] | Tumor Volume mean, Day 7 (U87MG Glioma Xenografts; 3 mg/kg IV on day 0 and day 7) [mm^3] | Tumor Volume mean, Day 10 (U87MG Glioma Xenografts; 3 mg/kg IV on day 0 and day 7) [mm^3] | Tumor Volume mean, Day 14 (U87MG Glioma Xenografts; 3 mg/kg IV on day 0 and day 7) [mm^3] | t/c (Treated over control) tumor volume, Day 0 (U87MG Glioma Xenografts; 3 mg/kg) | t/c (Treated over control) tumor volume, Day 3 (U87MG Glioma Xenografts; 3 mg/kg) | t/c (Treated over control) tumor volume, Day 7 (U87MG Glioma Xenografts; 3 mg/kg) | t/c (Treated over control) tumor volume, Day 10 (U87MG Glioma Xenografts; 3 mg/kg) | S/T (D14), Survival over total in group (U87MG Glioma Xenografts; 3 mg/kg) | t/c (Treated over control) tumor volume, Day 14 (U87MG Glioma Xenografts; 3 mg/kg) | Tumor Volume mean, Day 0 (U87MG Glioma Xenografts; 15 mg/kg IV on day 0 and day 7) [mm^3] | Tumor Volume mean, Day 3 (U87MG Glioma Xenografts; 15 mg/kg IV on day 0 and day 7) [mm^3] | also measured
42,17′-linked wortmannin-adipate-rapamycin conjugate, diethylamine adduct [Compound A] | >30 | 0.04 | 0.38 | 8.50 | 0.29 | 2.55 | 0.57 |  |  |  |  |  |  |  |  |  |  |  |  |  | 
42,17′-linked wortmannin-adipate-rapamycin conjugate, N,N,N′-trimethyl 1,3-propanediamine adduct [Compound E] | 7.50 | 0.25 | 1.35 | 3.15 | 1.00 | 1.95 | 5.00 | 182.7 | 214.7 | 340.2 | 471.6 | 595.9 | 0.99 | 0.78 | 0.68 | 0.45 | 10/10 | 0.27 | 187.5 | 168.0 | Tumor Volume mean, Day 7 (U87MG Glioma Xenografts; 15 mg/kg IV on day 0 and day 7): 181.6 mm^3; Tumor Volume mean, Day 10 (U87MG Glioma Xenografts; 15 mg/kg IV on day 0 and day 7): 165.8 mm^3; Tumor Volume mean, Day 14 (U87MG Glioma Xenografts; 15 mg/kg IV on day 0 and day 7): 162.8 mm^3; t/c (Treated over control) tumor volume, Day 0 (U87MG Glioma Xenografts; 15 mg/kg): 1.01; t/c (Treated over control) tumor volume, Day 3 (U87MG Glioma Xenografts; 15 mg/kg): 0.61; t/c (Treated over control) tumor volume, Day 7 (U87MG Glioma Xenografts; 15 mg/kg): 0.36; t/c (Treated over control) tumor volume, Day 10 (U87MG Glioma Xenografts; 15 mg/kg): 0.16; S/T (D14), Survival over total in group (U87MG Glioma Xenografts; 15 mg/kg): 10/10; t/c (Treated over control) tumor volume, Day 14 (U87MG Glioma Xenografts; 15 mg/kg): 0.07; efficacy in multi-cycle treatment (FIG. 2) (U87MG Glioma Xenografts; multi-cycle treatment): sustained efficacy
COCC1OC(=O)c2coc3c2C1(C)C1=C(C3=O)C2CCC(O)C2(C)CC1OC(C)=O (stereo not drawn) [17β-Hydroxywortmannin] |  |  |  |  |  |  |  |  |  |  |  |  |  |  |  |  |  |  |  |  | anti-tumor activity in the C3H mammary model (C3H mammary model; dose of 0.5 mg/kg): no inhibition; toxicity in the C3H mammary model (C3H mammary model; dose of 1.0 mg/kg): toxicity; increase in activity relative to wortmannin (PI3K; PI3K): 10 fold; IC50 (PI3K): 0.5 nM
42,17′-linked wortmannin-adipate-rapamycin conjugate [Compound B] | 16.50 | 0.80 | 2.05 | 4.70 | 1.00 | 1.10 | 3.50 |  |  |  |  |  |  |  |  |  |  |  |  |  | 
42,17′-linked wortmannin-succinate-rapamycin conjugate, N,N,N′-trimethyl 1,3-propanediamine adduct [Compound C] | 4.20 | 0.20 | 1.20 | 1.13 | 0.38 | 0.50 | 2.00 | 193.0 | 209.6 | 437.2 | 691.8 | 1091.7 | 1.04 | 0.76 | 0.88 | 0.66 | 10/10 | 0.49 | 183.6 | 193.5 | Tumor Volume mean, Day 7 (U87MG Glioma Xenografts; 15 mg/kg IV on day 0 and day 7): 246.7 mm^3; Tumor Volume mean, Day 10 (U87MG Glioma Xenografts; 15 mg/kg IV on day 0 and day 7): 294.2 mm^3; t/c (Treated over control) tumor volume, Day 0 (U87MG Glioma Xenografts; 15 mg/kg): 0.99; t/c (Treated over control) tumor volume, Day 3 (U87MG Glioma Xenografts; 15 mg/kg): 0.70; t/c (Treated over control) tumor volume, Day 7 (U87MG Glioma Xenografts; 15 mg/kg): 0.49; t/c (Treated over control) tumor volume, Day 10 (U87MG Glioma Xenografts; 15 mg/kg): 0.28; S/T (D14), Survival over total in group (U87MG Glioma Xenografts; 15 mg/kg): 10/10; t/c (Treated over control) tumor volume, Day 14 (U87MG Glioma Xenografts; 15 mg/kg): 0.11; antitumor activity (FIG. 2) (U87MG Glioma Xenografts; i.v. 1× weekly for 2 rounds at 1.5 mg/kg): improved inhibition of tumor cell growth; antitumor activity (FIG. 2) (U87MG Glioma Xenografts; i.v. 1× weekly for 2 rounds at 4.5 mg/kg): some improvement; antitumor activity (FIG. 2) (U87MG Glioma Xenografts; i.v. 1× weekly for 8 rounds at 15 mg/kg): Significant improvement
42,17′-linked wortmannin-adipate-rapamycin conjugate, diallylamine adduct [Compound D] | 5.00 | 0.21 | 1.15 | 1.75 | 0.66 | 0.43 | 4.10 | 185.1 | 244.5 | 435.4 | 636.4 | 1050.1 | 1.00 | 0.89 | 0.87 | 0.60 | 10/10 | 0.47 | 181.5 | 186.0 | Tumor Volume mean, Day 10 (U87MG Glioma Xenografts; 15 mg/kg IV on day 0 and day 7): 242.5 mm^3; Tumor Volume mean, Day 14 (U87MG Glioma Xenografts; 15 mg/kg IV on day 0 and day 7): 254.6 mm^3; t/c (Treated over control) tumor volume, Day 0 (U87MG Glioma Xenografts; 15 mg/kg): 0.98; t/c (Treated over control) tumor volume, Day 3 (U87MG Glioma Xenografts; 15 mg/kg): 0.68; t/c (Treated over control) tumor volume, Day 10 (U87MG Glioma Xenografts; 15 mg/kg): 0.23; S/T (D14), Survival over total in group (U87MG Glioma Xenografts; 15 mg/kg): 10/10; t/c (Treated over control) tumor volume, Day 14 (U87MG Glioma Xenografts; 15 mg/kg): 0.11
